# Laboratory results as given in US10202658B2, “Methods for determining hypersusceptibility of HIV-1 to non-nucleoside reverse transcriptase inhibitors” (Monogram Biosciences, Inc., priority 2005, dated 2019).
# Legend:
# Type in all cases: cell-based
# [1] = tested on: HIV-1 NL4-3 SDM, L74V in reverse transcriptase; assay: NNRTI susceptibility of site-directed mutant (SDM) containing L74V in NL4-3 background; conditions: relative to NL4-3
# Description: (§1) In preferred embodiments, the phenotypic analysis of NNRTI hypersusceptibility is performed using PHENOSENSE™ (ViroLogic Inc., South San Francisco, Calif.). See Petropoulos et al., 2000, Antimicrob. Agents Chemother. 44:920-928; U.S. Pat. Nos. 5,837,464 and 6,242,187. PHENOSENSE™ is a phenotypic assay that achieves the benefits of phenotypic testing and overcomes the drawbacks of previous assays. Because the assay has been automated, PHENOSENSE™ provides high throughput methods under controlled conditions for determining NNRTI resistance, susceptibility, or hypersusceptibility of a large number of individual viral isolates.
# (§2) The assay can be performed by first co-transfecting host cells with RTV DNA and a plasmid that expresses the envelope proteins of another retrovirus, for example, amphotropic murine leukemia virus (MLV). Following transfection, viral particles can be harvested from the cell culture and used to infect fresh target cells in the presence of varying amounts of anti-viral drug(s). The completion of a single round of viral replication in the fresh target cells can be detected by the means for detecting replication contained in the vector. In a preferred embodiment, the completion of a single round of viral replication results in the production of luciferase. […] The susceptibility of an HIV, or population of HIV, can be determined by measuring the concentration of antiviral drug at which the luciferase activity detected is half-maximal. […]
# (§3) Resistance tests were carried out with resistance test vectors using two host cell types. […] The resistance test vector viral particles were then used to infect a second host cell (the target host cell) in which the expression of the indicator gene is measured.
# (§4) The amount of luciferase activity detected in infected cells is used as a direct measure of “infectivity,” i.e., the ability of the virus to complete a single round of replication. Thus, drug resistance or sensitivity can be determined by plotting the amount of luciferase activity produced by patient derived viruses in the presence of varying concentrations of the antiviral drug. […]
# HIV-1, RT mutations: 65R = assay: PhenoSense resistance test vector assay, clinical isolates with 65R; conditions: share of samples designated hypersusceptible
# Description: as §1
# as §2, with “vector.” for “vector. In a preferred embodiment, the completion of a single round of viral replication results in the production of luciferase.”
# [2] = tested on: HIV-1, RT mutations: K70R and 2 TAMs; assay: PhenoSense resistance test vector assay, clinical isolates with K70R and 2 TAMs; conditions: share of samples designated hypersusceptible
# Description: as §1
# The assay can be performed by first co-transfecting host cells with RTV DNA and a plasmid that expresses the envelope proteins of another retrovirus, for example, amphotropic murine leukemia virus (MLV). Following transfection, viral particles can be harvested from the cell culture and used to infect fresh target cells in the presence of varying amounts of anti-viral drug(s). The completion of a single round of viral replication in the fresh target cells can be detected by the means for detecting replication contained in the vector. In a preferred embodiment, the completion of a single round of viral replication results in the production of luciferase. By monitoring the amount of, e.g., luciferase activity in the presence of the varying amounts of antiviral drug(s), a resistance curve can be constructed by plotting luciferase activity versus drug concentration. The susceptibility of an HIV, or population of HIV, can be determined by measuring the concentration of antiviral drug at which the luciferase activity detected is half-maximal. This number, the IC50, provides a standard and convenient measure of drug resistance.
# Patient-derived segment(s) corresponding to the HIV protease and reverse transcriptase coding regions were amplified by the reverse transcription-polymerase chain reaction method (RT-PCR) using viral RNA isolated from viral particles present in the plasma or serum of HIV-infected individuals as follows. […]
# [3] = tested on: HIV-1 NL4-3 SDM, M184V in reverse transcriptase; assay: NNRTI susceptibility of site-directed mutant (SDM) bearing only M184V in NL4-3 background; conditions: mean+/-SD of 17 replicates, p<0.00001 versus reference
# Description: as §1, §2, §3, §4
# [4] = tested on: HIV-1, RT mutations: 65R and 184V; assay: PhenoSense resistance test vector assay, clinical isolates with 65R and 184V; conditions: share of samples designated hypersusceptible
# Description: as §1
# as §2, with “vector.” for “vector. In a preferred embodiment, the completion of a single round of viral replication results in the production of luciferase.”
# [5] = tested on: HIV-1, RT mutations: T215Y and 2 TAMs; assay: PhenoSense resistance test vector assay, clinical isolates with T215Y and 2 TAMs; conditions: share of samples designated hypersusceptible
# Description: as §1
# as §2, with “vector.” for “vector. In a preferred embodiment, the completion of a single round of viral replication results in the production of luciferase.”
smiles,measurement,setting,value
"CC(C)Nc1cccnc1N1CCN(C(=O)c2cc3cc(NS(C)(=O)=O)ccc3[nH]2)CC1 [DLV, delavirdine]",FC (fold change in IC50),[1],0.68+/−0.06
same,% IC50 0.4 fold < WT,"HIV-1, RT mutations: 65R",44.4%
same,% IC50 0.4 fold < WT,[2],15.7%
same,FC (fold change in IC50),[3],0.65+/−0.05
same,% IC50 0.4 fold < WT,[4],42.7%
same,% IC50 0.4 fold < WT,[5],71.8%
"O=C1Nc2ccc(Cl)cc2[C@@](C#CC2CC2)(C(F)(F)F)O1 [EFV, efavirenz]",FC (fold change in IC50),[1],0.67+/−0.02
same,% IC50 0.4 fold < WT,[2],31.0%
same,FC (fold change in IC50),[3],0.65+/−0.03
"Cc1ccnc2c1NC(=O)c1cccnc1N2C1CC1 [NVP, nevirapine]",FC (fold change in IC50),[1],0.59+/−0.06
same,% IC50 0.4 fold < WT,"HIV-1, RT mutations: 65R",55.6%
same,% IC50 0.4 fold < WT,[2],36.9%
same,FC (fold change in IC50),[3],0.67+/−0.05
same,% IC50 0.4 fold < WT,[4],50.7%
same,% IC50 0.4 fold < WT,[5],31.3%
